# Patent publication US20090143279A1 (priority 2007, published 2009)
# Where two headings read alike, the source gives them in different places.
# How the values were obtained:
# mtOXPHOS transcripts = type: cell-based, mouse
# [1] = tested on: mitochondrial membrane potential; type: cell-based, mouse
# nuOXPHOS transcripts = type: cell-based, mouse
# reactive oxygen species = type: cell-based, mouse
# [2] = tested on: cellular dehydrogenase activity
# OXPHOS gene expression = type: cell-based, mouse
# cytochrome c = type: cell-based, mouse
# [3] = composite Z-score vs mock-treated (DMSO) wells, concentration of each compound in μM
# [4] = composite Z-score vs DMSO, Conc 20.18 μM
# [5] = composite Z-score vs DMSO, Conc 20 μM
# [6] = 20 μM, composite Z-score vs DMSO
# [7] = normalized composite Z-score vs mock-treated (DMSO) wells, Conc 20 μM
# [8] = composite Z-score vs mock-treated (DMSO) wells, Conc 20 μM
smiles,measurement,setting,value
CN1CCC[C@H]1c1cccnc1 [nicotine],mitoOX,mtOXPHOS transcripts,−1.705
same,ΔΨm,[1],−0.423
same,Viability,C2C12 myotubes,−0.093
same,nucOX,nuOXPHOS transcripts,−1.032
same,ROS,reactive oxygen species,0.503
same,MTT,[2],−1.228
same,GE-HTS,OXPHOS gene expression,−1.360
same,cyt c,cytochrome c,0.348
c1ccc2c3c([nH]c2c1)[C@H]1[C@H]2CC[C@H]([C@@H]4CCCN[C@@H]42)N1CC3 [nitrarine],mitoOX,mtOXPHOS transcripts; [3],−0.378
same,ΔΨm,[1]; [3],−0.986
same,Viability,C2C12 myotubes; [3],−0.068
same,nucOX,nuOXPHOS transcripts; [3],−0.303
same,ROS,reactive oxygen species; [3],0.458
same,MTT,[2]; [3],−1.978
same,GE-HTS,OXPHOS gene expression; [3],−0.352
same,cyt c,cytochrome c; [3],0.040
NC(=O)N/N=C/c1ccc([N+](=O)[O-])o1 [nitrofural],mitoOX,mtOXPHOS transcripts; [4],−0.750
same,ΔΨm,[1]; [4],−0.518
same,Viability,C2C12 myotubes; [4],0.584
same,nucOX,nuOXPHOS transcripts; [4],−0.010
same,ROS,reactive oxygen species; [4],0.446
same,MTT,[2]; [4],−0.852
same,GE-HTS,OXPHOS gene expression; [4],−0.260
same,cyt c,cytochrome c; [4],0.342
NC(=O)N/N=C/c1ccc([N+](=O)[O-])o1 [nitrofurazone],mitoOX,mtOXPHOS transcripts; [5],−0.643
same,ΔΨm,[1]; [5],−0.185
same,Viability,C2C12 myotubes; [5],0.544
same,nucOX,nuOXPHOS transcripts; [5],0.038
same,ROS,reactive oxygen species; [5],2.173
same,MTT,[2]; [5],−0.617
same,GE-HTS,OXPHOS gene expression; [5],−0.199
same,cyt c,cytochrome c; [5],0.785
NC(=O)c1cc([N+](=O)[O-])cc([N+](=O)[O-])c1 [nitromide],mitoOX,mtOXPHOS transcripts; [6],−0.086
same,ΔΨm,[1]; [6],1.648
same,Viability,C2C12 myotubes; [6],−0.259
same,nucOX,nuOXPHOS transcripts; [6],−0.100
same,ROS,reactive oxygen species; [6],1.299
same,MTT,[2]; [6],−1.071
same,GE-HTS,OXPHOS gene expression; [6],−0.128
same,cyt c,cytochrome c; [6],−0.346
CN1Cc2c(N)cccc2C(c2ccccc2)C1 (centres unmarked) [nomifensin],mitoOX,mtOXPHOS transcripts,0.181
same,mitoOX,mtOXPHOS transcripts; [6],−0.026
same,ΔΨm,[1],−0.329
same,ΔΨm,[1]; [6],−0.059
same,Viability,C2C12 myotubes,0.121
same,Viability,C2C12 myotubes; [6],0.525
same,nucOX,nuOXPHOS transcripts,−0.571
same,nucOX,nuOXPHOS transcripts; [6],−0.169
same,ROS,reactive oxygen species,3.133
same,ROS,reactive oxygen species; [6],3.112
same,MTT,[2],−0.534
same,MTT,[2]; [6],−0.885
same,GE-HTS,OXPHOS gene expression,−0.331
same,GE-HTS,OXPHOS gene expression; [6],−0.131
same,cyt c,cytochrome c,−1.298
same,cyt c,cytochrome c; [6],−1.233
CCCCC[C@H](CC(=O)O)C(=O)O [nonic acid],mitoOX,mtOXPHOS transcripts; [7],0.061
same,ΔΨm,[1]; [7],−0.931
same,Viability,C2C12 myotubes; [7],−1.043
same,nucOX,nuOXPHOS transcripts; [7],−0.104
same,ROS,reactive oxygen species; [7],1.211
same,MTT,[2]; [7],−1.857
same,GE-HTS,OXPHOS gene expression; [7],−0.080
same,cyt c,cytochrome c; [7],−0.133
Cc1cc(O)c(C=O)c2c1C(=O)Oc1c(C)c(O)c3c(c1O2)C(O)OC3=O (centres unmarked) [norstictic acid],mitoOX,mtOXPHOS transcripts; [5],−1.023
same,mitoOX,mtOXPHOS transcripts; [8],−0.148
same,ΔΨm,[1]; [5],−0.628
same,ΔΨm,[1]; [8],0.903
same,Viability,C2C12 myotubes; [5],0.730
same,Viability,C2C12 myotubes; [8],−0.899
same,nucOX,nuOXPHOS transcripts; [5],−0.639
same,nucOX,nuOXPHOS transcripts; [8],0.774
same,ROS,reactive oxygen species; [5],−0.426
same,ROS,reactive oxygen species; [8],0.560
same,MTT,[2]; [5],−0.613
same,MTT,[2]; [8],−0.567
same,GE-HTS,OXPHOS gene expression; [5],−0.800
same,GE-HTS,OXPHOS gene expression; [8],0.518
same,cyt c,cytochrome c; [5],0.467
same,cyt c,cytochrome c; [8],0.471
C[C@@H]1[C@H](O)[C@@H](C)/C=C/C=C/CC/C=C/C=C/C=C/C=C/C(O[C@H]2O[C@H](C)[C@@H](O)[C@H](N)[C@@H]2O)CC2O[C@](O)(CC(O)C(O)CCC(O)CC(O)CC(O)CC(=O)O[C@H]1C)CC(O)C2C(=O)O (some centres unmarked) [nystatin],mitoOX,mtOXPHOS transcripts; [5],0.289
same,ΔΨm,[1]; [5],−0.356
same,Viability,C2C12 myotubes; [5],0.794
same,nucOX,nuOXPHOS transcripts; [5],0.284
same,ROS,reactive oxygen species; [5],−0.043
same,MTT,[2]; [5],0.161
same,GE-HTS,OXPHOS gene expression; [5],0.326
same,cyt c,cytochrome c; [5],−0.059
C[C@@H]1[C@H](O)[C@@H](C)/C=C/C=C/CC/C=C/C=C/C=C/C=C/C(O[C@H]2O[C@H](C)[C@@H](O)[C@H](N)[C@@H]2O)CC2O[C@](O)(CC(O)C(O)CCC(O)CC(O)CC(O)CC(=O)O[C@H]1C)CC(O)C2C(=O)O (some centres unmarked) [nystatine],mitoOX,mtOXPHOS transcripts; [3],−0.683
same,ΔΨm,[1]; [3],−0.660
same,Viability,C2C12 myotubes; [3],−0.430
same,nucOX,nuOXPHOS transcripts; [3],−0.272
same,ROS,reactive oxygen species; [3],0.765
same,MTT,[2]; [3],−1.147
same,GE-HTS,OXPHOS gene expression; [3],−0.436
same,cyt c,cytochrome c; [3],0.061
CC1(C)OC(=O)C=CC2(C)C1CC(O)C1(C)C2CCC2(C)C(c3ccoc3)OC(=O)C3OC321 (centres unmarked) [obacunol],mitoOX,mtOXPHOS transcripts; [8],−0.734
same,ΔΨm,[1]; [8],0.464
same,Viability,C2C12 myotubes; [8],2.016
same,nucOX,nuOXPHOS transcripts; [8],−0.927
same,ROS,reactive oxygen species; [8],−0.134
same,MTT,[2]; [8],−0.982
same,GE-HTS,OXPHOS gene expression; [8],−0.906
same,cyt c,cytochrome c; [8],0.859
